These results are taken from ChEMBL document CHEMBL1133399, “2-(Alkylthio)pyrimidin-4-ones as novel, reversible inhibitors of lipoprotein-associated phospholipase A2” (Bioorg Med Chem Lett, 2000).

In assay [1] the target is T1, Platelet-activating factor acetylhydrolase (Homo sapiens, UniProt Q13093).
T1 sequence (Q13093 whole entry): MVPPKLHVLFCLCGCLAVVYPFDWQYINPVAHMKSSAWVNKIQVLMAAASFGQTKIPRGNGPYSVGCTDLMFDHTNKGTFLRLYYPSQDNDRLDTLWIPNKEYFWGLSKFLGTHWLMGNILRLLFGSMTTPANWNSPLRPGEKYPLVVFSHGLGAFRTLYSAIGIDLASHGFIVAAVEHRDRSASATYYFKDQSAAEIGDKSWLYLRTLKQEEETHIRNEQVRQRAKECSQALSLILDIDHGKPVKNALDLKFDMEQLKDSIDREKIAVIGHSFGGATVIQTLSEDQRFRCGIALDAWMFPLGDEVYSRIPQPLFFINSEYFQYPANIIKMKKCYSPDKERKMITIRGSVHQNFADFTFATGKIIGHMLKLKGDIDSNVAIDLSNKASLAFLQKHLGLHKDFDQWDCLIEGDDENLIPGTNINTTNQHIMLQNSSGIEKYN
The experiment in a line: Inhibition of lipoprotein-associated phospholipase A2 (Lp-PLA2).

In assay [2] the target is T2, Platelet-activating factor acetylhydrolase (Homo sapiens) (UniProt Q13093).
T2 sequence (whole entry): T1 sequence (Q13093 whole entry)
Briefly: The compound was tested for inhibition of Lipoprotein-associated phospholipase A2 (Lp-PLA2) at 10 uM.

Assay [3] deals with T1, Platelet-activating factor acetylhydrolase. The experiment in a line: The compound was tested for inhibition of Lipoprotein-associated phospholipase A2 (Lp-PLA2).
The target of assay [4] is T2, Platelet-activating factor acetylhydrolase (Homo sapiens). Briefly: The compound was tested for inhibition of Lipoprotein-associated phospholipase A2 (Lp-PLA2) at 30 uM.

Each structure is given as a SMILES string.

Consider `Oc1nc(SCCCCCCCOc2ccc(Cl)cc2)ncc1Cc1cccnc1`, for which, in assay [1], half-maximal inhibition (IC50) was put at 230 nM.

For `O=c1[nH]c(SCc2ccc(Cl)cc2)ncc1Cc1cccnc1`, in assay [1], half-maximal inhibition (IC50) was put at 4400 nM.

As to `COc1ccc(CCCCCCCCSc2ncc(Cc3ccc(C)nc3)c(O)n2)cc1`, in assay [1], the concentration for half-maximal inhibition (IC50) (usually the concentration needed to halve the response being measured) stood at 1100 nM. This IC50 lies about 4-fold lower than the previous one.

For the molecule `Oc1nc(SCCCCCCCCc2ccccc2)ncc1Cc1ccccn1`, the inhibition (usually the drop in the measured response relative to a control, in per cent) in assay [2] was 38%. Take `Cc1ccc(Cc2cnc(SCCCCCCCc3ccccc3)nc2O)cn1`: the IC50 in assay [1] worked out at 1000 nM. On the same count and under the same terms, the figure for `O=c1[nH]c(SCc2ccccc2)ncc1Cc1ccncc1` is 4400 nM. For the molecule `Oc1nc(SCCCCCCCCc2ccccc2)ncc1Cc1ccccc1`, the inhibition in assay [2] is 0%. `CCCCn1ccc(Cc2cnc(SCCCCCCCCc3ccccc3)nc2O)cc1=O` displayed an IC50 in assay [1] of 780 nM. That is a sub-micromolar value. On the same count and under the same terms, the figure for `CC(=O)c1ccc(CCCCCCCCSc2ncc(Cc3cccnc3)c(O)n2)cc1` is 2900 nM; for `Cc1ccc(Cc2cnc(SCCCCCCOCc3ccc(Cl)cc3)[nH]c2=O)cn1` it is 1200 nM; for `O=c1[nH]c(SCCCCCCc2ccccc2)ncc1Cc1cccnc1` it is 2300 nM.

For the molecule `O=c1[nH]c(SCc2ccccc2)ncc1Cc1cccnc1`, half-maximal inhibition in assay [1] (IC50) required 1100 nM. The molecule `Cn1ccc(Cc2cnc(SCCCCCCCC(=O)c3ccc(Cl)cc3)[nH]c2=O)cc1=O` showed an IC50 in assay [1] of 72 nM. Moreover, affinity in assay [3] was put at a Ki of 41 nM. As for `O=C(CCCCCCCSc1ncc(Cc2cnccn2)c(=O)[nH]1)c1ccc(Cl)cc1`, half-maximal inhibition in assay [1] (IC50) required 640 nM. Molecule `Cc1nc(SCCCCCCCC(=O)c2ccc(Cl)cc2)nc(O)c1Cc1cccnc1` registered an inhibition in assay [2] of 40%. As to `O=c1[nH]c(SCCCCCCCCc2ccccc2)ncc1Cc1ccncc1`, the IC50 in assay [1] turned out to be 630 nM. In other words, the sub-micromolar range. As for `Oc1nc(SCc2ccccc2)ncc1Cc1cncnc1`, it took 1100 nM to reach half-maximal inhibition in assay [1] (IC50).

In assay [1], `Cc1ccc(Cc2cnc(SCCCCCCCCCc3ccccc3)nc2O)cn1` yielded an IC50 of 990 nM. This IC50 and that of the molecule before are within 1.5-fold of each other. On the same count and under the same terms, the figure for `O=C(CCCCCCCSc1ncc(Cc2cccnc2)c(O)n1)c1cccs1` is 1300 nM. In assay [1], `O=S(=O)(CCCCCCCSc1ncc(Cc2cccnc2)c(O)n1)c1ccc(Cl)cc1` displayed an IC50 of 12600 nM. The same measure, in the same setting: the value for `Oc1nc(SCc2ccc(F)cc2)ncc1Cc1cncnc1` was 850 nM; that for `Oc1nc(SCCCCCCCCCc2ccccc2)ncc1Cc1cccnc1` was 430 nM; that for `Cc1ccc(Cc2cnc(OCCCCc3ccccc3)nc2O)cn1` was 12000 nM. Still for that read-out and setting: the figure for `O=C(CCCCCCCOc1ncc(Cc2cccnc2)c(=O)[nH]1)c1ccc(Cl)cc1` is 64 nM; for `[O-][S+](CCCCCCCSc1ncc(Cc2cccnc2)c(O)n1)c1ccc(Cl)cc1` (configuration not stated) it is 17000 nM. `O=C(NCCCCCCSc1ncc(Cc2cccnc2)c(O)n1)c1ccc(Cl)cc1` yielded an inhibition in assay [2] of 41%. In turn, `Oc1nc(SCCCCCCCCc2ccc(Cl)cc2)ncc1Cc1cccnc1` yielded an IC50 in assay [1] of 200 nM. In assay [1], `O=C(CCCCCCCCSc1ncc(Cc2cccnc2)c(=O)[nH]1)c1ccc(Cl)cc1` showed an IC50 of 650 nM.

In assay [1], `O=c1[nH]c(SCCCCCCCCc2cccc(Cl)c2)ncc1Cc1cccnc1` displayed an IC50 of 850 nM. Still for that read-out and setting: the value for `O=C(CCCCCCCSc1ncc(Cc2cncnc2)c(O)n1)c1ccc(Cl)cc1` was 54 nM. Molecule `O=C(CSc1ncc(Cc2cccnc2)c(O)n1)c1ccccc1` had an inhibition in assay [2] of 0%. As for `O=C(CCCCCCCSc1ncc(Cc2cccnc2)c(O)n1)c1ccc(Cl)cc1`, it took 110 nM to reach half-maximal inhibition in assay [1] (IC50). Still for that read-out and setting: the value for `Oc1nc(SCCCCCCCSc2ccc(Cl)cc2)ncc1Cc1cccnc1` was 250 nM. As for `Cc1ccc(Cc2cnc(SCCCc3ccccc3)nc2O)cn1`, in assay [4], the inhibition was found to be 10%. In assay [2], `Oc1nc(SCCCCCCCCc2ccccc2)ncc1Cc1ccoc1` gave an inhibition of 63%.

`COc1cc(Cc2cnc(SCCCCCCCCc3ccccc3)nc2O)ccn1` came in with a 50% inhibitory concentration (IC50) in assay [1] of 1000 nM.
